# How the values were obtained:
# KRAS G12C-GDP = KRAS G12C-GDP (Homo sapiens (Human), UniProt P01116, G12C); assay: KRAS G12C-GDP exchange test (SOS/cRAF/GTP, HTRF); assay type: biochemical; conditions: 1 h premix with compound, 2 h reaction with SOS, cRAF, GTP
# Procedure: 2. A mixture of SOS (Pharmaron, ZZY-20190823), cRAF (Pharmaron, ZZY-20190823), GTP (Sigma, A6885-100MG), MAb Anti 6HIS-d2/MAb Anti GST-Eu (Cisbio, 61HISDLB/61GSTKLB) was added for a catalyzed reaction for 2 h.
# 3. The fluorescence signals of the emitted light at 615 nm and 665 nm under 320 nm excitation light were read by Biotek Microplate Reader (Synergy4).
# 4. The IC50 (median inhibitory concentration) of the compound was obtained by the following non-linear fitting formula: Y=Bottom+(Top−Bottom)/(1+10^((Log IC50−X)*Hill Slope)), and the data were analyzed by Graphpad 6-0 software.
# H358 cells = assay: Cell activity experiment: activity test of H358 cells (MTT, 5 days); assay type: cell-based; conditions: 5 days incubation, absorbance 492 nm
# Method in brief: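 H358 cells seeded 90 μL at 55555 cells/mL, grown 24 h, then exposed to 3-fold serial compound dilutions (final top 10000 nM, 0.5% DMSO) in triplicate for 5 days at 37° C., 5% CO2. Viability by MTT (4 h), formazan dissolved in DMSO, absorbance at 492 nm.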
# [1] = Pharmacokinetic experiment in SD rats; assay type: in vivo; conditions: male, Sprague-Dawley, rat, plasma, po, 10 mg/kg; read-out: Oral bioavailability, F %
# Procedure: Pharmacokinetic Experiment in SD Rats:
# 1. SPF male rats were randomly divided into groups. The compounds to be tested were separately administered by intravenous injection and oral gavage, with 3 animals for each compound to be tested in each mode of administration. The administration solvent was 5% DMSO+10% Solutol+85% normal saline or 85% PBS, and the substances to be tested were dissolved in the solvent to obtain clear solutions. Administration concentration and volume: 1) a single intravenous injection of 0.6 mg/mL of the compound to be tested, with an administration volume of 5 mL/kg and an administration dosage of 3 mg/kg; and 2) a single oral gavage of 1 mg/mL of the compound to be tested, with an administration volume of 10 mL/kg and an administration dosage of 10 mg/kg. The rats were fasted overnight (10-14 h) before administration and fed 4 h after administration.
# 2. Blood was collected via the jugular vein or by other appropriate methods at 200 μL per time point and anticoagulated with K2-EDTA, and after collection, the blood was placed on ice and centrifuged for plasma within 1 h (centrifugation conditions: 6800 g, 6 min 2-8° C.). The points for blood sampling from the animals in the intravenous injection group were respectively: before administration, and 5 min, 15 min, 30 min, 1 h, 2 h, 4 h, 8 h, and 24 h after administration; and the points for blood sampling from the animals in the oral administration group were respectively: before administration, and 15 min, 30 min, 1 h, 2 h, 4 h, 6 h, 8 h, and 24 h after administration.
# 3. The blood concentration was detected, and the pharmacokinetic parameter AUC(0-t) was calculated by Phoenix WinNonlin based on the blood concentration data at various time points. When the pharmacokinetic parameters were calculated, the BLQ before Cmax (including ‘No peak’) was calculated as 0: and BLQ after Cmax (including ‘No peak’) was not involved in the calculation.
Molecule,IC50 (KRAS G12C-GDP) [nM],"IC50 (H358 cells; Homo sapiens, NCI-H358, 120 h) [nM]",bioavailability [1] [%],IC50 (H358 cells) [nM]
"C=CC(=O)N1CCN(c2nc(OC[C@@H]3CCCN3C)nc3nc(-c4cccc5cccc(Cl)c45)ccc23)C[C@@H]1CC#N [Example 254, 2-((S)-1-acryloyl-4-(7-(8-chloronaphthalen-1-yl)-2-(((S)-1-methylpyrrolidin-2-yl)methoxy)pyridino[2,3-d]pyrimidin-4-yl)piperazin-2-yl)acetonitrile]",8.9,30,,
"C=CC(=O)N1CCN(c2nc(OC[C@@H]3CCCN3C)nc3c(F)c(-c4ccc(F)c5c4CCCC5)ncc23)C[C@@H]1CC#N [Example 17, 2-((S)-1-acryloyl-4-(8-fluoro-7-(4-fluoro-5,6,7,8-tetrahydronaphthalen-1-yl)-2-(((S)-1-methylpyrrolidin-2-yl)methoxy)pyridino[4,3-d]pyrimidin-4-yl)piperazin-2-yl)acetonitrile]",1.65,30,,
"C=CC(=O)N1CCN(c2nc(OCC34CCCN3CCC4)nc3c(F)c(-c4cccc5c4CCCC5)ncc23)C[C@@H]1CC#N [Example 2, (S)-2-(1-acryloyl-4-(8-fluoro-2-((tetrahydro-1H-pyrrolizin-7a(5H)-yl)methoxy)-7-(5,6,7,8-tetrahydronaphthalen-1-yl)pyridino[4,3-d]pyrimidin-4-yl)piperazin-2-yl)acetonitrile]",10.6,1,,
"C=CC(=O)N1CCN(c2nc(OC[C@@H]3CCCN3C)nc3c(F)c(-c4cccc5c4CCCC5)ncc23)C[C@@H]1CC#N [Example 1, 2-((S)-1-acryloyl-4-(8-fluoro-2-(((S)-1-methylpyrrolidin-2-yl)methoxy)-7-(5,6,7,8-tetrahydronaphthalen-1-yl)pyridino[4,3-d]pyrimidin-4-yl)piperazin-2-yl)acetonitrile]",20.3,15,,
"C=C(F)C(=O)N1CCN(c2nc(OCC34CCCN3CCC4)nc3c(F)c(-c4cccc5c4CCCC5)ncc23)C[C@@H]1CC#N [Example 3, (S)-2-(4-(8-fluoro-2-((tetrahydro-1H-pyrrolizin-7a(5H)-yl)methoxy)-7-(5,6,7,8-tetrahydronaphthalen-1-yl)pyridino[4,3-d]pyrimidin-4-yl)-1-(2-fluoroacryloyl)piperazin-2-yl)acetonitrile]",13.8,3.5,,
"C=CC(=O)N1CCN(c2nc(OC[C@@H]3CCCN3C)nc3c(F)c(-c4cccc5cccc(Cl)c45)ccc23)C[C@@H]1CC#N [Example 358, 2-((S)-1-acryloyl-4-(7-(8-chloronaphthalen-1-yl)-8-fluoro-2-(((S)-1-methylpyrrolidin-2-yl)methoxy)quinazolin-4-yl)piperazin-2-yl)acetonitrile]",2.4,3.4,2.35,
"C=CC(=O)N1CCN(c2nc(OC[C@@H]3CCCN3C)nc3nc(-c4cccc5c4CCCC5)ccc23)C[C@@H]1CC#N [Example 286, 2-((S)-1-acryloyl-4-(2-(((S)-1-methylpyrrolidin-2-yl)methoxy)-7-(5,6,7,8-tetrahydronaphthalen-1-yl)pyridino[2,3-d]pyrimidin-4-yl)piperazin-2-yl)acetonitrile]",9.91,,,355
"C=CC(=O)N1CCN(c2nc(OC[C@@H]3CCCN3C)nc3cc(-c4cccc5cccc(Cl)c45)ccc23)C[C@@H]1CC#N [Example 73, 2-((S)-1-acryloyl-4-(7-(8-chloronaphthalen-1-yl)-2-(((S)-1-methylpyrrolidin-2-yl)methoxy)quinazolin-4-yl)piperazin-2-yl)acetonitrile]",1.34,15,,
"C=C(F)C(=O)N1CC[C@@H]2[C@H]1CN2c1nc(OC[C@@H]2CCCN2C)nc2c(F)c(-c3cccc4c3CCCC4)ncc12 [Example 10, 2-fluoro-1-((1R,5R)-6-(8-fluoro-2-(((S)-1-methylpyrrolidin-2-yl)methoxy)-7-(5,6,7,8-tetrahydronaphthalen-1-yl)pyridino[4,3-d]pyrimidin-4-yl)-2,6-diazabicyclo[3.2.0]hept-2-yl)prop-2-en-1-one]",8,60,,
"C=CC(=O)N1CCN(c2nc(OC[C@@]34CCCN3C[C@H](F)C4)nc3c(F)c(-c4cccc5cccc(Cl)c45)ccc23)C[C@@H]1CC#N [Example 367, 2-((2S)-1-acryloyl-4-(7-(8-chloronaphthalen-1-yl)-8-fluoro-2-((((2R,7aS)-2-fluorotetrahydro-1H-pyrrolizin-7a(5H))-yl)methoxy)quinazolin-4-yl)piperazin-2-yl)acetonitrile]",,1.5,11.6,
C=C(F)C(=O)N1CC[C@@H]2[C@H]1CN2c1nc(OC[C@@]23CCCN2C[C@H](F)C3)nc2c(F)c(-c3cccc4c3CCCC4)ncc12 [Example 16],,5,,

# Now from value to molecule:
IC50 (KRAS G12C-GDP) [nM],"IC50 (H358 cells; Homo sapiens, NCI-H358, 120 h) [nM]",bioavailability [1] [%],IC50 (H358 cells) [nM],Molecule
0.93,0.4,30.3,,"C=C(F)C(=O)N1CCN(c2nc(OC[C@@]34CCCN3C[C@H](F)C4)nc3c(F)c(-c4cccc5cccc(Cl)c45)ccc23)C[C@@H]1CC#N [Example 904, 2-((S)-4-(7-(8-chloronaphthalen-1-yl)-8-fluoro-2-((2R,7aS)-2-fluorotetrahydro-1H-pyrrolizin-7a(5H)-methoxy)quinazolin-4-yl)-1-(2-fluoroacryloyl)piperazin-2-yl)acetonitrile]"
,0.4,28.5,,"C=C(F)C(=O)N1CCN(c2nc(OC[C@@]34CCCN3C[C@H](F)C4)nc3c(F)c(-c4cccc5ccc(F)c(Cl)c45)ccc23)C[C@@H]1CC#N [Example 914, 2-((S)-4-(7-(8-chloro-7-fluoronaphthalen-1-yl)-8-fluoro-2-((2R,7aS)-2-fluorotetrahydro-1H-pyrrolizin-7a(5H)-ylmethoxy)quinazolin-4-yl)-1-(2-fluoroacryloyl)piperazin-2-yl)acetonitrile]"
0.71,,,3.4,"C=CC(=O)N1CCN(c2nc(OC[C@@H]3CCCN3C)nc3c(F)c(-c4cccc5c4CC4CC54)ccc23)C[C@@H]1CC#N (single isomer, unassigned) [Example 881]"
4.52,809,,,"C=CC(=O)N1CCN(c2nc(OC[C@@H]3CCCN3C)nc3cc(-c4cccc5ccc(F)c(Cl)c45)cnc23)C[C@@H]1CC#N [Example 840, 2-((S)-1-acryloyl-4-(7-(8-chloro-7-fluoronaphthalen-1-yl)-2-(((S)-1-methylpyrrolidin-2-yl)methoxy)pyridino[3,2-d]pyrimidin-4-yl)piperazin-2-yl)acetonitrile]"
1.32,,,61,2-((S)-1-acryloyl-4-(6-fluoro-7-(8-chloro-7- fluoronaphthalen-1-yl)-2-(((S)-1-methylpyrrolidin-2- yl))methoxy)quinazolin-4-yl)piperazin-2-yl)acetonitrile [Example 395]
2.23,70,,,"C=CC(=O)N1CCN(c2nc(OC[C@@H]3CCCN3C)nc3cc(-c4cccc5cccc(Cl)c45)c(Cl)cc23)C[C@@H]1CC#N [Example 465, 2-((S)-1-acryloyl-4-(6-chloro-7-(8-chloronaphthalen-1-yl)-2-(((S)-1-methylpyrrolidin-2-yl)methoxy)quinazolin-4-yl)piperazin-2-yl)acetonitrile]"
0.59,4.4,,,"C=CC(=O)N1CCN(c2nc(OCC3(CN4CCCC4)CC3)nc3c(F)c(-c4cccc5cccc(Cl)c45)ncc23)C[C@@H]1CC#N [Example 854, (S)-2-(1-acryloyl-4-(7-(8-chloronaphthalen-1-yl)-8-fluoro-2-((1-(pyrrolidin-1-ylmethyl)cyclopropyl)methoxy)pyridino[4,3-d]pyrimidin-4-yl)piperazin-2-yl)acetonitrile]"
0.79,,,12,"C=CC(=O)N1CCN(c2nc(OC[C@@H]3CCCN3C)nc3c(F)c(-c4cccc5c4CC4CC54)ncc23)C[C@@H]1CC#N (single isomer, unassigned) [Example 873]"
0.49,,,10.6,"C=C(F)C(=O)N1CCN(c2nc(OC[C@@H]3CCCN3C)nc3c(F)c(-c4cccc5c4CC4CC54)ccc23)C[C@@H]1CC#N (single isomer, unassigned) [Example 883]"

# Source: US20240109893A1, “PREPARATION AND APPLICATION METHOD OF HETEROCYCLIC COMPOUNDS AS KRAS INHIBITOR” (SHANGHAI KECHOW PHARMA, INC., priority 2020, published 2024)
